Peptide text beside a SMILES is read from it. * marks the point of attachment. X1 = CC1(C)S[C@@H]2[C@H](NC(=O)C*)C(=O)N2[C@H]1C(=O)O; Carboxymethyl = O=C(O)C*
Key:
[1] = molecular target: T1, PBP2a (Staphylococcus aureus, UniProt P07944); test: Relative IC50 competition assay of peptide penicillanate conjugates against PBP2a (biotinylated ampicillin); type: binding; parameters: This part was cleaved off with DTT before the test
Description: Relative IC50 Assay of Peptide Penicillanate Conjugates
Various concentration of conjugates were prepared by dissolving in reaction buffer (50 mM phosphate, pH=8.0; 100 mM NaCl) and incubating with 2 Vg pure PBP2a respectively at 37° C. for 15 min. 20 μg biotinylated ampicillin was added immediately and incubated at 37° C. for 10 min. The reaction was stopped by heating the reaction mixture at 94° C. for 5 min. The samples were loaded into 12% SDS-PAGE for separation, then were transferred to a nitrocellulose membrane by blotting with sodium bicarbonate buffer (20% methanol; 3 mM Na2CO3; 10 mM NaHCO3) at 400 mA for 3 hr. The membrane was blocked with blocking solution (20 mM Tris, pH=8.0; 150 mM NaCl; 0.05% TWEEN-20 detergent; 5% milk) for 1 hr, then incubated with 10 ml TBS buffer (20 mM Tris, pH=8.0; 150 mM NaCl) containing 1 μg/ml streptavidin-HRP protein (Pierce Chemical) at room temperature for 1 hr. The membrane was washed 6 times with 50 ml TBS buffer, at 5 min intervals, and covered with FEMTO-WESTERN blotting reagent (Pierce Chemical). The membrane was then examined under a digital camera at dark to collect chemiluminescent emission for 10-15 min.

[2] = molecular target: Crk N terminal SH3 domain (Homo sapiens, UniProt P46108); settings: substitution for proline at P2 and P−1; cited from earlier work
Crk N terminal SH3 domain, sequence (P46108 132-192 limits assumed): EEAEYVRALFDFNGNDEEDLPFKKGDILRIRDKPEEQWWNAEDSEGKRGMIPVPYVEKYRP

[3] = molecular target: Grb2 N terminal SH3 domain (Homo sapiens, UniProt P62993); settings: substitution for proline at P2 and P−1; cited from earlier work
Grb2 N terminal SH3 domain, sequence (P62993 1-58 limits assumed): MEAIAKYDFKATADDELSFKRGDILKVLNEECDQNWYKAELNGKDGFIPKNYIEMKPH

[4] = molecular target: T1, PBP2a; settings: cited from earlier work
[5] = molecular target: translation complex A site; settings: ribosome; cited from earlier work
[6] = molecular target: penicillin-binding protein 2a (PBP2a) (Staphylococcus aureus (MRSA)) (UniProt P07944); test: relative IC50: competition with biotinylated ampicillin for labelling of pure PBP2a, streptavidin-HRP blot
penicillin-binding protein 2a (PBP2a) (Staphylococcus aureus (MRSA)), sequence (P07944 23-670): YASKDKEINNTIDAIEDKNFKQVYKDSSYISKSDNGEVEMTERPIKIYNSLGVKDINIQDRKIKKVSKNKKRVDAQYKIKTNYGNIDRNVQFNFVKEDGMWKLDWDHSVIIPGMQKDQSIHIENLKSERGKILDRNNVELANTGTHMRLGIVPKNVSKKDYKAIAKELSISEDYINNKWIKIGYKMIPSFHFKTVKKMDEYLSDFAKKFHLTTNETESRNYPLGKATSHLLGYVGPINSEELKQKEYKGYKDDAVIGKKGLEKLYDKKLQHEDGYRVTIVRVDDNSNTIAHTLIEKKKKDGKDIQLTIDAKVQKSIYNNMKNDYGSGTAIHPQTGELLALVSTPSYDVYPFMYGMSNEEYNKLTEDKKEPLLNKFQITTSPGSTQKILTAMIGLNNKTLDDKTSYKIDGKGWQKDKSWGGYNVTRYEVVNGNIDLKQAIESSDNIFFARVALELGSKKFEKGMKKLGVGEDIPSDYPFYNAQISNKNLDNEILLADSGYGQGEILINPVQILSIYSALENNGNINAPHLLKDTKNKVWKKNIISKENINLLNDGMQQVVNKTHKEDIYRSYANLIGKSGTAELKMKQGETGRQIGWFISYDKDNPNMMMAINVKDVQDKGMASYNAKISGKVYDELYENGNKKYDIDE

[7] = molecular target: penicillin-binding protein 2a (PBP2a) (Staphylococcus aureus (MRSA)) (UniProt P07944); test: ratio of relative IC50 values against the 6-aminopenicillanic acid reference, biotinylated ampicillin competition on PBP2a
[8] = molecular target: penicillin-binding protein 2a (PBP2a) (Staphylococcus aureus (MRSA)) (UniProt P07944); test: relative IC50: conjugate pre-incubated with pure PBP2a 15 min at 37 C, then competition with biotinylated ampicillin, SDS-PAGE and streptavidin-HRP blot

T1 sequence (P07944 whole entry, the tested form may be a part): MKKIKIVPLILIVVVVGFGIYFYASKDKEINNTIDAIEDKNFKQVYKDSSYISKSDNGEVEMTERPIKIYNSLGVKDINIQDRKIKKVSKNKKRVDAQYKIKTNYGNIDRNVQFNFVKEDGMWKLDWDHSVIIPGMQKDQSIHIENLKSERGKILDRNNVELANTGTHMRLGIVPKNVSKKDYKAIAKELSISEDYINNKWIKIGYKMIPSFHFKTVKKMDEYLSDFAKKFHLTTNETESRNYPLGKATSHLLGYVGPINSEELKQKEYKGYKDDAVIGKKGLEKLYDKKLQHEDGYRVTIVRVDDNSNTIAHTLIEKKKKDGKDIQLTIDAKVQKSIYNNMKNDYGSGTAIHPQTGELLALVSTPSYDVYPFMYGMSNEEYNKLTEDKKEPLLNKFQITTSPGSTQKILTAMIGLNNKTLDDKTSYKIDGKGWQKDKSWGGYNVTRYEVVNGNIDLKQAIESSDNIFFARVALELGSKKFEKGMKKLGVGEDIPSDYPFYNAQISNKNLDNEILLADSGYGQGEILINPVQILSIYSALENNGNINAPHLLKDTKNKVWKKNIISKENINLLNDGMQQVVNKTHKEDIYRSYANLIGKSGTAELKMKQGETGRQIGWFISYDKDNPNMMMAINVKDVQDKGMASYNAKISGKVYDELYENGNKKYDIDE

In the case of CC[C@H](C)[C@H](NC(=O)[C@H](CSCC(=O)N[C@@H]1C(=O)N2[C@@H]1SC(C)(C)[C@@H]2C(=O)O)NC(=O)[C@H](CC(N)=O)NC(=O)[C@H](CO)NC(=O)[C@H](CC(N)=O)NC(=O)[C@H](CCCNC(=N)N)NC(=O)[C@@H](N)CC(C)C)C(=O)N[C@@H](CCCNC(=N)N)C(=O)N[C@@H](Cc1c[nH]cn1)C(=O)N[C@@H](Cc1ccccc1)C(=O)N[C@@H](Cc1ccccc1)C(=O)O [LRNSNC(pen)IRHFF] (H-LRNSNC(X1)IRHFF-OH; N-terminus and C-terminus assumed), the “improvement as compared to 6-APA” value ([1]; PBP2a inhibition) is reported as “about 100 fold”.
For CNCC(=O)O [N-methyl glycine], the “change in the binding” value [2] is listed as “little change” and the “change in the binding” value [3] is listed as “little change”.
In the case of CC1(C)S[C@@H]2[C@H](NC(=O)Cc3ccccc3)C(=O)N2[C@H]1C(=O)O [benzyl penicillin], the “rate constant for covalent attachment to PBP2a (k2)” value [4] is listed as 0.22 s⁻¹.
For COc1cccc(OC)c1C(=O)N[C@@H]1C(=O)N2[C@@H]1SC(C)(C)[C@@H]2C(=O)O [methicillin], the “rate constant for covalent attachment to PBP2a (k2)” value [4] is given as 0.0083 s⁻¹.
In the case of COc1ccc(C[C@H](N)C(=O)N[C@H]2[C@@H](O)[C@H](n3cnc4c(N(C)C)ncnc43)O[C@@H]2CO)cc1 [puromycin], the Kd [5] is listed as 0.1 mM.
In the case of CC[C@H](C)[C@H](NC(=O)[C@H](CSCC(=O)O)NC(=O)[C@H](CC(N)=O)NC(=O)[C@H](CO)NC(=O)[C@H](CC(N)=O)NC(=O)[C@H](CCCNC(=N)N)NC(=O)[C@@H](N)CC(C)C)C(=O)N[C@@H](CCCNC(=N)N)C(=O)N[C@@H](Cc1c[nH]cn1)C(=O)N[C@@H](Cc1ccccc1)C(=O)N[C@@H](Cc1ccccc1)C(=O)O [unmodified peptide] (H-LRNSNC(Carboxymethyl)IRHFF-OH), the IC50 [1] is reported as > 35 mM.
In the case of “LRNSNC(COOH)IRHFF (residues 2-12 of SEQ ID NO: 5) (peptide)”, the IC50 [6] is reported as > 35 mM.
“LRNSNC(pen)IRHFF (residues 2-12 of SEQ ID NO: 5) (peptide)” showed a fold improvement compared to 6-APA [7] of 100 fold and an IC50 [8] of 7 mM.

From patent publication US20030235851A1, “Methods of using sense and/or nonsense suppression to make nucleic acid-peptide display libraries containing peptides with unnatural amino acid residues” (priority 2002, published 2003)
